What was measured:
Test in all cases: relative viability (nuclei count vs DMSO), 5 days (fraction); higher = more cells survive
A549 = tested on: A549
How it was run: (§1)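 Each reported value is a median over duplicate plates. It expresses relative viability: treated-well nuclei count divided by vehicle-well nuclei count. Lung cancer cell lines in 1536-well plates were dosed by pin tool a day after seeding, alone with one drug or with a fixed anchor-drug dose plus five library-drug doses (not always all listed) in √10 steps, and nuclei were counted after 5 days.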

HCC-366 = tested on: HCC-366
How it was run: as §1

NCI-H3122 = tested on: NCI-H3122
How it was run: as §1

NCI-H2085 = tested on: NCI-H2085
How it was run: as §1

NCI-H1703 = tested on: NCI-H1703
How it was run: as §1

NCI-H1299 = tested on: NCI-H1299
How it was run: as §1

Calu-6 = tested on: Calu-6
How it was run: as §1

LOU-NH91 = tested on: LOU-NH91
How it was run: as §1

NCI-H1437 = tested on: NCI-H1437
How it was run: as §1

EBC-1 = tested on: EBC-1
How it was run: as §1

IA-LM = tested on: IA-LM
How it was run: as §1

HCC-44 = tested on: HCC-44
How it was run: as §1

LXF-289 = tested on: LXF-289
How it was run: as §1

With `Nc1ccn([C@@H]2O[C@H](CO)[C@@H](O)[C@@H]2O)c(=O)n1` [Cytarabine] + CC1(C)CCC(c2ccc(Cl)cc2)=C(CN2CCN(c3ccc(C(=O)NS(=O)(=O)c4ccc(N[C@H](CCN5CCOCC5)CSc5ccccc5)c(S(=O)(=O)C(F)(F)F)c4)cc3)CC2)C1 [Navitoclax] (partner 0.5 µM) the relative viability (A549; first compound 0.005 µM) was 0.969, the relative viability (A549; first compound 0.01581 µM) was 0.588 and the relative viability (A549; first compound 0.05 µM) was 0.476. For the same molecule, the relative viability (A549; first compound 0.1581 µM) was 0.0384, the relative viability (A549; first compound 0.5 µM) was 0.0234 and the relative viability (HCC-366; first compound 0.005 µM) was 0.889. The relative viability (HCC-366; first compound 0.01581 µM) was 0.918, the relative viability (HCC-366; first compound 0.05 µM) was 0.328 and the relative viability (HCC-366; first compound 0.1581 µM) was 0.0444. It also gave a relative viability (HCC-366; first compound 0.5 µM) of 0.0177, a relative viability (NCI-H3122; first compound 0.005 µM) of 0.968 and a relative viability (NCI-H3122; first compound 0.01581 µM) of 0.877. It also gave a relative viability (NCI-H3122; first compound 0.05 µM) of 0.876, a relative viability (NCI-H3122; first compound 0.1581 µM) of 0.682 and a relative viability (NCI-H3122; first compound 0.5 µM) of 0.457. For the same molecule, the relative viability (NCI-H2085; first compound 0.005 µM) was 1.15, the relative viability (NCI-H2085; first compound 0.01581 µM) was 1.08 and the relative viability (NCI-H2085; first compound 0.05 µM) was 1.02. It also gave a relative viability (NCI-H2085; first compound 0.1581 µM) of 0.731, a relative viability (NCI-H2085; first compound 0.5 µM) of 0.728 and a relative viability (NCI-H1703; first compound 0.005 µM) of 0.717. The relative viability (NCI-H1703; first compound 0.01581 µM) was 0.365, the relative viability (NCI-H1703; first compound 0.05 µM) was 0.244 and the relative viability (NCI-H1703; first compound 0.1581 µM) was 0.135. It also gave a relative viability (NCI-H1703; first compound 0.5 µM) of 0.105, a relative viability (NCI-H1299; first compound 0.005 µM) of 1.09 and a relative viability (NCI-H1299; first compound 0.01581 µM) of 1.13. It also gave a relative viability (NCI-H1299; first compound 0.05 µM) of 1.08, a relative viability (NCI-H1299; first compound 0.1581 µM) of 1.02 and a relative viability (NCI-H1299; first compound 0.5 µM) of 0.989. The relative viability (Calu-6; first compound 0.005 µM) was 0.831, the relative viability (Calu-6; first compound 0.01581 µM) was 0.796 and the relative viability (Calu-6; first compound 0.05 µM) was 0.9. The relative viability (Calu-6; first compound 0.1581 µM) was 0.338, the relative viability (Calu-6; first compound 0.5 µM) was 0.22 and the relative viability (LOU-NH91; first compound 0.005 µM) was 0.693. For the same molecule, the relative viability (LOU-NH91; first compound 0.01581 µM) was 0.606, the relative viability (LOU-NH91; first compound 0.05 µM) was 0.463 and the relative viability (LOU-NH91; first compound 0.1581 µM) was 0.332. It also gave a relative viability (LOU-NH91; first compound 0.5 µM) of 0.35, a relative viability (NCI-H1437; first compound 0.005 µM) of 0.875 and a relative viability (NCI-H1437; first compound 0.01581 µM) of 0.637. For the same molecule, the relative viability (NCI-H1437; first compound 0.05 µM) was 0.469, the relative viability (NCI-H1437; first compound 0.1581 µM) was 0.214 and the relative viability (NCI-H1437; first compound 0.5 µM) was 0.175. The relative viability (EBC-1; first compound 0.005 µM) was 0.304, the relative viability (EBC-1; first compound 0.01581 µM) was 0.281 and the relative viability (EBC-1; first compound 0.05 µM) was 0.233. The relative viability (EBC-1; first compound 0.1581 µM) was 0.222, the relative viability (EBC-1; first compound 0.5 µM) was 0.165 and the relative viability (IA-LM; first compound 0.005 µM) was 0.917. The relative viability (IA-LM; first compound 0.01581 µM) was 0.603, the relative viability (IA-LM; first compound 0.05 µM) was 0.64 and the relative viability (IA-LM; first compound 0.1581 µM) was 0.279. The relative viability (IA-LM; first compound 0.5 µM) was 0.151, the relative viability (HCC-44; first compound 0.005 µM) was 0.949 and the relative viability (HCC-44; first compound 0.01581 µM) was 1.01. The relative viability (HCC-44; first compound 0.05 µM) was 0.534, the relative viability (HCC-44; first compound 0.1581 µM) was 0.563 and the relative viability (HCC-44; first compound 0.5 µM) was 0.26. It also gave a relative viability (LXF-289; first compound 0.005 µM) of 0.805, a relative viability (LXF-289; first compound 0.01581 µM) of 0.944 and a relative viability (LXF-289; first compound 0.05 µM) of 0.564. It also gave a relative viability (LXF-289; first compound 0.1581 µM) of 0.395 and a relative viability (LXF-289; first compound 0.5 µM) of 0.253.
`Nc1ccn([C@@H]2O[C@H](CO)[C@@H](O)[C@@H]2O)c(=O)n1` [Cytarabine] + CC(C)C[C@H](NC(=O)[C@H](Cc1ccccc1)NC(=O)c1cnccn1)B(O)O [Bortezomib] (partner 0.002 µM) was tested, and the relative viability (HCC-366; first compound 0.005 µM) was 1.16, the relative viability (HCC-366; first compound 0.01581 µM) was 0.911 and the relative viability (HCC-366; first compound 0.05 µM) was 0.479. For the same molecule, the relative viability (HCC-366; first compound 0.1581 µM) was 0.0971, the relative viability (HCC-366; first compound 0.5 µM) was 0.036 and the relative viability (NCI-H3122; first compound 0.005 µM) was 0.932. The relative viability (NCI-H3122; first compound 0.01581 µM) was 0.96, the relative viability (NCI-H3122; first compound 0.05 µM) was 0.856 and the relative viability (NCI-H3122; first compound 0.1581 µM) was 0.676. It also gave a relative viability (NCI-H3122; first compound 0.5 µM) of 0.614, a relative viability (NCI-H2085; first compound 0.005 µM) of 0.983 and a relative viability (NCI-H2085; first compound 0.01581 µM) of 0.913. It also gave a relative viability (NCI-H2085; first compound 0.05 µM) of 0.946, a relative viability (NCI-H2085; first compound 0.1581 µM) of 0.631 and a relative viability (NCI-H2085; first compound 0.5 µM) of 0.66. It also gave a relative viability (NCI-H1703; first compound 0.005 µM) of 0.321, a relative viability (NCI-H1703; first compound 0.01581 µM) of 0.172 and a relative viability (NCI-H1703; first compound 0.05 µM) of 0.145. The relative viability (NCI-H1703; first compound 0.1581 µM) was 0.117, the relative viability (NCI-H1703; first compound 0.5 µM) was 0.134 and the relative viability (NCI-H1299; first compound 0.005 µM) was 1.01. The relative viability (NCI-H1299; first compound 0.01581 µM) was 1.09, the relative viability (NCI-H1299; first compound 0.05 µM) was 1.05 and the relative viability (NCI-H1299; first compound 0.1581 µM) was 1.03. The relative viability (NCI-H1299; first compound 0.5 µM) was 1, the relative viability (Calu-6; first compound 0.005 µM) was 0.864 and the relative viability (Calu-6; first compound 0.01581 µM) was 0.794. The relative viability (Calu-6; first compound 0.05 µM) was 0.749, the relative viability (Calu-6; first compound 0.1581 µM) was 0.609 and the relative viability (Calu-6; first compound 0.5 µM) was 0.356. For the same molecule, the relative viability (LOU-NH91; first compound 0.005 µM) was 0.406, the relative viability (LOU-NH91; first compound 0.01581 µM) was 0.47 and the relative viability (LOU-NH91; first compound 0.05 µM) was 0.388. For the same molecule, the relative viability (LOU-NH91; first compound 0.1581 µM) was 0.338, the relative viability (LOU-NH91; first compound 0.5 µM) was 0.357 and the relative viability (NCI-H1437; first compound 0.005 µM) was 0.334. It also gave a relative viability (NCI-H1437; first compound 0.01581 µM) of 0.287, a relative viability (NCI-H1437; first compound 0.05 µM) of 0.243 and a relative viability (NCI-H1437; first compound 0.1581 µM) of 0.18. The relative viability (NCI-H1437; first compound 0.5 µM) was 0.16, the relative viability (EBC-1; first compound 0.005 µM) was 0.543 and the relative viability (EBC-1; first compound 0.01581 µM) was 0.49. For the same molecule, the relative viability (EBC-1; first compound 0.05 µM) was 0.515, the relative viability (EBC-1; first compound 0.1581 µM) was 0.341 and the relative viability (EBC-1; first compound 0.5 µM) was 0.326. It also gave a relative viability (IA-LM; first compound 0.005 µM) of 0.739, a relative viability (IA-LM; first compound 0.01581 µM) of 0.663 and a relative viability (IA-LM; first compound 0.05 µM) of 0.648. It also gave a relative viability (IA-LM; first compound 0.1581 µM) of 0.411, a relative viability (IA-LM; first compound 0.5 µM) of 0.165 and a relative viability (HCC-44; first compound 0.005 µM) of 0.828. It also gave a relative viability (HCC-44; first compound 0.01581 µM) of 0.895, a relative viability (HCC-44; first compound 0.05 µM) of 0.793 and a relative viability (HCC-44; first compound 0.1581 µM) of 0.425. It also gave a relative viability (HCC-44; first compound 0.5 µM) of 0.405, a relative viability (LXF-289; first compound 0.005 µM) of 0.887 and a relative viability (LXF-289; first compound 0.01581 µM) of 0.936. The relative viability (LXF-289; first compound 0.05 µM) was 0.901, the relative viability (LXF-289; first compound 0.1581 µM) was 0.474 and the relative viability (LXF-289; first compound 0.5 µM) was 0.258.

From the supplement of paper PMC10307832
